In ChEMBL document CHEMBL1201862, “PubChem BioAssay data set” (2004):
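Test compounds were applied to cells in 96-well plates for 48 hours at 5 doses. GI50: concentration for 50% inhibition of growth.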 Calls of active or inactive are those of the source. Cut-off read from the data, not from the text of the source: active = GI50 up to about 1.1 µM and inactive = higher.

Assays:
Assay in all cases: DTP human tumour cell line panel, 48 h
T47D = system: T47D
KM12 = system: KM12
M14 = system: M14
SK-OV-3 = system: SK-OV-3
CCRF-CEM = system: CCRF-CEM
NCI-H23 = system: NCI-H23
LOX IMVI = system: LOX IMVI
HOP-62 = system: HOP-62
UACC-62 = system: UACC-62
HCT-15 = system: HCT-15
SR = system: SR
SK-MEL-2 = system: SK-MEL-2
MDA-MB-435 = system: MDA-MB-435
SF-268 = system: SF-268
HT-29 = system: HT-29
SK-MEL-5 = system: SK-MEL-5
RPMI-8226 = system: RPMI-8226
HOP-92 = system: HOP-92
Hs-578T = system: Hs-578T
SF-539 = system: SF-539

Compound | GI50 (T47D) | GI50 (KM12) | GI50 (M14) | GI50 (SK-OV-3) | GI50 (CCRF-CEM) | GI50 (NCI-H23) | GI50 (LOX IMVI) | GI50 (HOP-62) | GI50 (UACC-62) | GI50 (HCT-15) [µM] | GI50 (SR) | GI50 (SK-MEL-2) | GI50 (MDA-MB-435) | GI50 (SF-268) | GI50 (HT-29) | GI50 (SK-MEL-5) | GI50 (RPMI-8226) | GI50 (HOP-92) | GI50 (Hs-578T) | GI50 (SF-539)
Cn1c(=O)n(CC(Br)CBr)c(=O)n(CC(Br)CBr)c1=O (stereo not given) | 38.7 µM (inactive) | 48.9 µM (inactive) | 24.3 µM (inactive) | > 100 µM (inactive) | 22.7 µM (inactive) | 36 µM (inactive) | 18.4 µM (inactive) | > 100 µM (inactive) | 23.3 µM (inactive) | 36.2 | 18.4 µM (inactive) | 46.1 µM (inactive) | 29.9 µM (inactive) | 74.6 µM (inactive) | 21.7 µM (inactive) | 16.5 µM (inactive) | 25.1 µM (inactive) | > 100 µM (inactive) | > 100 µM (inactive) | 25.3 µM (inactive)
SC1=Nc2ccccc2-c2nc(-c3cccc(Cl)c3)cc(-c3ccccc3)c2C1 | 2.19 µM (inactive) | 4.53 µM (inactive) | 4.61 µM (inactive) | 2.11 µM (inactive) | 2.36 µM (inactive) | 5.07 µM (inactive) | 3.15 µM (inactive) | 1.86 µM (inactive) | 1.61 µM (inactive) | 7.08 | 11.2 µM (inactive) | 5.25 µM (inactive) | 9.02 µM (inactive) | 3.79 µM (inactive) | 2.38 µM (inactive) | 26.8 µM (inactive) | 3.2 µM (inactive) | 1.09 µM (active) | 2.05 µM (inactive) | 1.69 µM (inactive)
C=C1C(=O)C[C@H]2C(=C)C(=O)O[C@@H]2C2C1CC[C@@]2(C)O (stereo not given in full) | 28.2 µM (inactive) | 50 µM (inactive) | 16.1 µM (inactive) | > 100 µM (inactive) | > 100 µM (inactive) | 24.9 µM (inactive) | 17.5 µM (inactive) | 31.3 µM (inactive) | 14.9 µM (inactive) | 17.7 | 27.1 µM (inactive) | 21.5 µM (inactive) | 30.3 µM (inactive) | > 100 µM (inactive) | 20 µM (inactive) | 39.4 µM (inactive) | 7.98 µM (inactive) | 26.4 µM (inactive) | 26.9 µM (inactive) | 26.8 µM (inactive)
CC(=S)NC=C(C(N)=O)C(N)=O | > 100 µM (inactive) | > 100 µM (inactive) | > 100 µM (inactive) | > 100 µM (inactive) | > 100 µM (inactive) | > 100 µM (inactive) | > 100 µM (inactive) | > 100 µM (inactive) | > 100 µM (inactive) | > 100 | > 100 µM (inactive) | > 100 µM (inactive) | > 100 µM (inactive) | > 100 µM (inactive) | > 100 µM (inactive) | > 100 µM (inactive) | > 100 µM (inactive) | 3.26 µM (inactive) | > 100 µM (inactive) | > 100 µM (inactive)
CC(C)(C)C(=O)OCC1CCC[N+]2(C)CCCCC12 (stereo not given) | > 100 µM (inactive) | > 100 µM (inactive) | > 100 µM (inactive) | > 100 µM (inactive) | > 100 µM (inactive) | > 100 µM (inactive) | > 100 µM (inactive) | > 100 µM (inactive) | > 100 µM (inactive) | > 100 | > 100 µM (inactive) | > 100 µM (inactive) | > 100 µM (inactive) | > 100 µM (inactive) | > 100 µM (inactive) | > 100 µM (inactive) | > 100 µM (inactive) | > 100 µM (inactive) | > 100 µM (inactive) | > 100 µM (inactive)
COc1cccc(C2c3cc4c(cc3OC(N3CCOCC3)C2C)OCO4)c1O (stereo not given) | 4.48 µM (inactive) | 3.48 µM (inactive) | 4.6 µM (inactive) | 5.56 µM (inactive) | 3.28 µM (inactive) | 6.73 µM (inactive) | 5.31 µM (inactive) | 4.27 µM (inactive) | 4.53 µM (inactive) | 3.32 | 1.23 µM (inactive) | 7.1 µM (inactive) | 1.24 µM (inactive) | 6.89 µM (inactive) | 4.02 µM (inactive) | 3.6 µM (inactive) | 2.83 µM (inactive) | 12.1 µM (inactive) | 1.77 µM (inactive) | 2.69 µM (inactive)
